Data: PMC9736855, “Discovery of 3-Amino-1H-pyrazole-Based Kinase Inhibitors to Illuminate the Understudied PCTAIRE Family” (International Journal of Molecular Sciences, 2022)
Several values for one entry are separate records, joined by “and”; a condition that tells them apart may be missing. Equal values may be shown once. Read-outs that look alike come from different tables or passages of the source.

Columns and labels:
CK2A2 = target: T1, CK2A2 (Homo sapiens, UniProt P19784); test: DSF; assay type: binding;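 also: compound tested at 10 µM with 2 µM protein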
T1 construct: purchased in-house DSF panel (SGC Frankfurt)
T1 sequence (P19784 whole entry): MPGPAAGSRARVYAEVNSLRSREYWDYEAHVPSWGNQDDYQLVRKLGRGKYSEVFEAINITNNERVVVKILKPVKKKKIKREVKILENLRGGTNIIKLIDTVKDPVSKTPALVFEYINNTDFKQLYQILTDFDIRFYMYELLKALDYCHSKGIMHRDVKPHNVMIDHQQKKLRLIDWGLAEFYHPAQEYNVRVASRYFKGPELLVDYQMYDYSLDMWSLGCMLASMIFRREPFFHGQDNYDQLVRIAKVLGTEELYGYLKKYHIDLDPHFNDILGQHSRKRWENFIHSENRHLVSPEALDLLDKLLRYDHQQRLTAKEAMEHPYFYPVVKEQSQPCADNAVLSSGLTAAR
Experimental: (§1) Recombinant protein kinase domains with a concentration of 2 μM were mixed with a 10 μM compound solution in DMSO, 20 mM HEPES, pH 7.5, and 500 mM NaCl. SYPRO Orange (5000×, Invitrogen) was added as a fluorescence probe (1 µl per mL). Subsequently, temperature-dependent protein unfolding profiles were measured, using the QuantStudio™ 5 realtime PCR machine (Thermo Fisher, Waltham, MA, USA). […] The temperature was raised with a step rate of 3 °C per minute. Data points were analyzed with the internal software (Thermal Shift SoftwareTM Version 1.4, Thermo Fisher) using the Boltzmann equation to determine the inflection point of the transition curve [56]. Differences in melting temperature are given as ΔTm values in °C. Measurements were performed in duplicates.

FGFR2 = target: T2, FGFR2 (Homo sapiens, UniProt P21802); test: DSF; assay type: binding;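 also: compound tested at 10 µM with 2 µM protein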
T2 construct: purchased in-house DSF panel (SGC Frankfurt)
T2 sequence (P21802 458-770): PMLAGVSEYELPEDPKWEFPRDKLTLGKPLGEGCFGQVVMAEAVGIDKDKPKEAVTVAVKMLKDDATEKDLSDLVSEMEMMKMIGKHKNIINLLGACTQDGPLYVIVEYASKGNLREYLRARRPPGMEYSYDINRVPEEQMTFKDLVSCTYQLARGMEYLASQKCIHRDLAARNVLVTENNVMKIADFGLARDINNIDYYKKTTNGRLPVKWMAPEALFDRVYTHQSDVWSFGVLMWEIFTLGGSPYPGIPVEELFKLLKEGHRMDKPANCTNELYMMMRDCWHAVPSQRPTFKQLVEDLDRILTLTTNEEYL
Experimental: as §1

EPHA2 = target: T3, EPHA2 (Homo sapiens, UniProt P29317); test: DSF; assay type: binding
T3 construct: purchased in-house DSF panel (SGC Frankfurt)
T3 sequence (P29317 596-900): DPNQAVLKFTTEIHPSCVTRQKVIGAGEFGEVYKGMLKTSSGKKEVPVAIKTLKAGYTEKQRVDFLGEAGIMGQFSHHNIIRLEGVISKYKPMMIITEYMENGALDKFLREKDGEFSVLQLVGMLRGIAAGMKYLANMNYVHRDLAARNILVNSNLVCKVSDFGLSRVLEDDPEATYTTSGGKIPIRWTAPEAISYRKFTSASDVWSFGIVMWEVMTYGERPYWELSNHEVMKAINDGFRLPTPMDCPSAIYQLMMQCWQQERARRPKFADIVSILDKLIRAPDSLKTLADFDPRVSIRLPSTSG
Experimental: as §1

CDK16 and GSK3 = test: proteome-wide CETSA MS; assay type: cell-based; details: K562 cells, 30 µM, 60 min
Experimental: To verify whether the substances also lead to stabilization of proteins in the cellular system, proteome-wide CETSA experiments were performed. Therefore, lead structure 1 and some compounds from the second series (21b, 21d, 21e, 21h, and 21i) were selected for this study (Figure 6, Figure S1). While the statistical significance is plotted on the Y-axis, the relative protein amount is shown on the X-axis. […] Based on excellent proteome-wide selectivity identifying CDK16 and GSK3 as the most prominently stabilized kinases, 21d and 21i were selected for further investigations. […] We therefore decided to proceed with a CDK16-specific cellular assay.
Compressed CETSA MS assays, also known as PISA (Proteome Integral Stability Alteration assay), were performed as previously described by Chernobrovkin et. al., with some minor changes. K562 cells were obtained from ATCC. K562 cells were mixed with an equal volume of compound solution, final concentartion of 30 µM, in a buffer (20 mM HEPES, 138 mM NaCl, 5 mM KCl, 2 mM CaCl2, 1 mM MgCl2, pH 7.4). One percent and DMSO was used as a control. Cells were incubated at +37 °C for 60 min. The cell suspension was split into 12 aliquots which were heated at a different temperature between 44 and 66 °C for 3 min. After the heating, the cells were lysed through freeze–thawing them 3 times and the lysed aliquots were pooled together. Cell debris and aggregates were removed through centrifugation (20 min at 30.000× g).

MAPK10 = target: T4, MAPK10 (Homo sapiens, UniProt P53779); test: DSF; assay type: binding;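 also: compound tested at 10 µM with 2 µM protein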
T4 construct: purchased in-house DSF panel (SGC Frankfurt)
T4 sequence (P53779 whole entry): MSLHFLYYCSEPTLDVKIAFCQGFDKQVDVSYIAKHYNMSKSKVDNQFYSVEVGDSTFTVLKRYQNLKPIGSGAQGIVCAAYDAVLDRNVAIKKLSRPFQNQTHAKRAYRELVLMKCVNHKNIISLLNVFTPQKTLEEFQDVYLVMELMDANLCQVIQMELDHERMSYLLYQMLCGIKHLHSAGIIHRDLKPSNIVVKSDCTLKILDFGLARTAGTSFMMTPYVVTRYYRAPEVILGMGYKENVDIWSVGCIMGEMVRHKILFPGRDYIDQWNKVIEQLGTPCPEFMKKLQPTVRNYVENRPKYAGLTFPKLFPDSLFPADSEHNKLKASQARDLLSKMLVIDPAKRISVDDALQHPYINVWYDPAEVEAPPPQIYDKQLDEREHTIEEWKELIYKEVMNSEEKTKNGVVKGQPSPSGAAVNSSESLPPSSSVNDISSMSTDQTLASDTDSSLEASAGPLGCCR
Experimental: as §1

MAP2K4 = target: T5, MAP2K4 (Homo sapiens, UniProt P45985); test: DSF; assay type: binding
T5 construct: purchased in-house DSF panel (SGC Frankfurt)
T5 sequence (P45985 102-367): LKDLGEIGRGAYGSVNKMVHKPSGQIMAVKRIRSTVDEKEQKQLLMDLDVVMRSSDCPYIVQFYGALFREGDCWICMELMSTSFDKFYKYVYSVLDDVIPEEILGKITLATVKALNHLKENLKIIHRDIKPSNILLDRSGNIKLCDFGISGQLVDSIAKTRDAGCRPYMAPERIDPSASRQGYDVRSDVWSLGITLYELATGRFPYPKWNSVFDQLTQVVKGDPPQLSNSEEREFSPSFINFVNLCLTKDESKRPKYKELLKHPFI
Experimental: as §1

MAPK14 = target: T6, MAPK14 (Homo sapiens, UniProt Q16539); test: DSF; assay type: binding
T6 construct: purchased in-house DSF panel (SGC Frankfurt)
T6 sequence (Q16539 whole entry): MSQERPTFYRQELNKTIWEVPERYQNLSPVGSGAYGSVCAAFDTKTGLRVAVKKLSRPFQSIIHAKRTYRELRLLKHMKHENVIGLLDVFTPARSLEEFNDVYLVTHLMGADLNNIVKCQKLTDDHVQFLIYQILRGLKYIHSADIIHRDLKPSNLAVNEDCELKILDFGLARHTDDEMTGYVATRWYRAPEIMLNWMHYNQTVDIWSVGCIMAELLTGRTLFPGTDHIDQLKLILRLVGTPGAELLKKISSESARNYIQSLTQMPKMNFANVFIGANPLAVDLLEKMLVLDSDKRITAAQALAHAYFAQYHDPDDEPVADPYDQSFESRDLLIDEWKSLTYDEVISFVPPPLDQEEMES
Experimental: as §1

CAMKK2 = target: T7, CAMKK2 (Homo sapiens, UniProt Q96RR4); test: DSF; assay type: binding
T7 construct: purchased in-house DSF panel (SGC Frankfurt)
T7 sequence (Q96RR4 161-449): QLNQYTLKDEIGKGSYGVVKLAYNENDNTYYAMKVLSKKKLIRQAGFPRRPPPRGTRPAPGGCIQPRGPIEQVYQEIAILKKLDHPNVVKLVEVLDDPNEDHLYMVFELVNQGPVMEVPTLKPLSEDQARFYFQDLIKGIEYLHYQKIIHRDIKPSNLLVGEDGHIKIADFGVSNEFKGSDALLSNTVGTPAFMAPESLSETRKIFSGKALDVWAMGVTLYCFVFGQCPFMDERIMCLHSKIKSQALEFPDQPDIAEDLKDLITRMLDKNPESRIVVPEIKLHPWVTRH
Experimental: as §1

MST4 = target: T8, MST4 (Homo sapiens, UniProt Q9P289); test: DSF; assay type: binding
T8 construct: purchased in-house DSF panel (SGC Frankfurt)
T8 sequence (Q9P289 1-300): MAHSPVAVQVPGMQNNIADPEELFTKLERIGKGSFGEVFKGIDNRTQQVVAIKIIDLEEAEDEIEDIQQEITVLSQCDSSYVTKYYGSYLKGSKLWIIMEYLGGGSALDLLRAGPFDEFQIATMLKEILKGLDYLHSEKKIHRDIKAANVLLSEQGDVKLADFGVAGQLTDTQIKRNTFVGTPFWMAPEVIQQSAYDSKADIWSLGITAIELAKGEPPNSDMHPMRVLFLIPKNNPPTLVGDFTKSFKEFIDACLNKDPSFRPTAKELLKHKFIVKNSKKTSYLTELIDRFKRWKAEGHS
Experimental: as §1

PIM1 = target: T9, PIM1 (Homo sapiens, UniProt P11309); test: DSF; assay type: binding
T9 construct: purchased in-house DSF panel (SGC Frankfurt)
T9 sequence (P11309 whole entry): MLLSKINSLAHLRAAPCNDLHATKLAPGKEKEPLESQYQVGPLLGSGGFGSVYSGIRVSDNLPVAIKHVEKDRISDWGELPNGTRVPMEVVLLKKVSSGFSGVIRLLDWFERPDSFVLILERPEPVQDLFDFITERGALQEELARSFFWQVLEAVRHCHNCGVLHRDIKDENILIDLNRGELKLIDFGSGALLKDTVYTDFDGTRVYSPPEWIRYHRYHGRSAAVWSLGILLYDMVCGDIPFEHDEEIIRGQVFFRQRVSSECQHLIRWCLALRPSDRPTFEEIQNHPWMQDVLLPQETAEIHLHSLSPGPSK
Experimental: as §1

MST3 = target: T10, MST3 (Homo sapiens, UniProt Q9Y6E0); test: DSF; assay type: binding
T10 construct: purchased in-house DSF panel (SGC Frankfurt)
T10 sequence (Q9Y6E0 4-301): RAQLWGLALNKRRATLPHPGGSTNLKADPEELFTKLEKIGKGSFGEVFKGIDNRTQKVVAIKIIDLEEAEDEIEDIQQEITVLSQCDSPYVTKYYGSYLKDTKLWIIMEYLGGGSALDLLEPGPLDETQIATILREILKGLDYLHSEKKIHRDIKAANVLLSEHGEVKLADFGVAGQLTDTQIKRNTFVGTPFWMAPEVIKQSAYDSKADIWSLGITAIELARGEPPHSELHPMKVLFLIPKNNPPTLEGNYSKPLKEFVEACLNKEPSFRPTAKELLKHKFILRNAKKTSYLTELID
Experimental: as §1

CDK16/Cyclin Y = target: T11, CDK16/Cyclin Y (Homo sapiens, UniProt Q00536); test: NanoBRET; assay type: cell-based
T11 construct: Full-length kinases were obtained as plasmids cloned in frame with a terminal NanoLuc-fusion; CS1810C178 (CCNY); host or cells: HEK293T
T11 sequence (Q00536 whole entry, the tested form may be a part): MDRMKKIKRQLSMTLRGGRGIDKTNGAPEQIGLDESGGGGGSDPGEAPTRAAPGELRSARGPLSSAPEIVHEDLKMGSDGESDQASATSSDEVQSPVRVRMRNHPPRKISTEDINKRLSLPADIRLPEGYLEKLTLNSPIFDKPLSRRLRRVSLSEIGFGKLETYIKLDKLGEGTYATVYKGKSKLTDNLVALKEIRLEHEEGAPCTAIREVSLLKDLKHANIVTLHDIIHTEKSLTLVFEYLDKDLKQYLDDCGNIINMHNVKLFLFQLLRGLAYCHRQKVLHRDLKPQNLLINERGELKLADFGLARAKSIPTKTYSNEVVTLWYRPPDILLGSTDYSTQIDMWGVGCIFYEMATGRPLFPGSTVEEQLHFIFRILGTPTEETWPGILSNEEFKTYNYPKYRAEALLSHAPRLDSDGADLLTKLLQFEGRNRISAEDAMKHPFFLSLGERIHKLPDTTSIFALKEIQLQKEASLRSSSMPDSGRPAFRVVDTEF
T11 sequence (Q8ND76 2-341 partner limits assumed): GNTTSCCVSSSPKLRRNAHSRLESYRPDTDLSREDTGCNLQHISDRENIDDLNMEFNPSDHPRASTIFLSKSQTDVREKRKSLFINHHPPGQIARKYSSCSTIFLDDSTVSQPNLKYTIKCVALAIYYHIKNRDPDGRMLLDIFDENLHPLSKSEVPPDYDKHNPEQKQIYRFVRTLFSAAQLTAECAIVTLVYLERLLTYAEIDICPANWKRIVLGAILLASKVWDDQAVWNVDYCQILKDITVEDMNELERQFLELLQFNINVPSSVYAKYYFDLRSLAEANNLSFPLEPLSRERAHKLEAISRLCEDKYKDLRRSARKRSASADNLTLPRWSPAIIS
Outline: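 HEK293T cells transiently expressing full-length NanoLuc-fused kinase for 20 h, treated with serially diluted inhibitor plus tracer at its KD,app. Equilibrated 2 h at 37 °C/5% CO2 before reading BRET (450/610 nm). EC50 from tracer displacement by normalized 3-parameter fit.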

SRC = target: T12, SRC (Homo sapiens, UniProt P12931); test: DSF; assay type: binding;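 also: compound tested at 10 µM with 2 µM protein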
T12 construct: purchased in-house DSF panel (SGC Frankfurt)
T12 sequence (P12931 254-536): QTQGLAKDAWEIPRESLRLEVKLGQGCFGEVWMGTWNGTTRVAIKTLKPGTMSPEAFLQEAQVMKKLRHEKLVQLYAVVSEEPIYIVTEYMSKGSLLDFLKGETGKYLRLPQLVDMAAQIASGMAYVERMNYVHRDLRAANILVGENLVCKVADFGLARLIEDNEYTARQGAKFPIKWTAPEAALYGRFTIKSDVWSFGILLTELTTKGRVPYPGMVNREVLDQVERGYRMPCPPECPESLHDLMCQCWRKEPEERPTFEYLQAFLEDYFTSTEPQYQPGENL
Experimental: as §1

MAPK9 = target: T13, MAPK9 (Homo sapiens, UniProt P45984); test: DSF; assay type: binding;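 also: compound tested at 10 µM with 2 µM protein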
T13 construct: purchased in-house DSF panel (SGC Frankfurt)
T13 sequence (P45984 1-364): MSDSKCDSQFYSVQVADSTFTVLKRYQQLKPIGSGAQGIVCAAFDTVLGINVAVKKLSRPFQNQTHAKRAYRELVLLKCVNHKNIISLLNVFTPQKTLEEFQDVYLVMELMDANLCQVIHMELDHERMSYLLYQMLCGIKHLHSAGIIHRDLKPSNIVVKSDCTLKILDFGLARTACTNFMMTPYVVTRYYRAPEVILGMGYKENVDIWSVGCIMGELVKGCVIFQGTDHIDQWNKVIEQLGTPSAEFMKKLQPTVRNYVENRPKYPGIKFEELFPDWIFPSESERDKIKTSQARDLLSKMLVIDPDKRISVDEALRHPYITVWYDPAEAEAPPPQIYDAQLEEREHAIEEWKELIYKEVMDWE
Experimental: as §1

[1] = Figure 7, 11-point dose-response in duplicates, read-out: NanoBRET EC50 ± SEM against CDK16

SMILES	ΔTm CK2A2 (CK2A2)	ΔTm FGFR2 (FGFR2)	ΔTm EPHA2 (EPHA2)	stabilization in CETSA MS (CDK16 and GSK3)	ΔTm MAPK10 (MAPK10)	ΔTm MAP2K4 (MAP2K4)	ΔTm MAPK14 (MAPK14)	ΔTm CAMKK2 (CAMKK2)	ΔTm MST4 (MST4)	ΔTm PIM1 (PIM1)	ΔTm MST3 (MST3)	EC50 (CDK16/Cyclin Y; [1])	ΔTm SRC (SRC)	ΔTm MAPK9 (MAPK9)	EC50 (CDK16/Cyclin Y; CDK family profiling, Table S5, read-out: NanoBRET EC50 ± SEM CDK16/Cyclin Y)
COC(=O)c1cc(Nc2ccnc(NCCOCCNC(=O)OC(C)(C)C)n2)[nH]n1 [21d, methyl 5-((2-((2-(2-((tert-butoxycarbonyl)amino)ethoxy)ethyl)amino)pyrimidin-4-yl)amino)-1H-pyrazole-3-carboxylate]	1.8 °C	1.5 °C	0.2 °C	stabilization of CDK16 and GSK3	2.9 °C	0.9 °C	-0.3 °C	0.5 °C	0.7 °C	2.1 °C	-0.3 °C	1370 ± 306 nM	0.5 °C	1.1 °C	–
COC(=O)c1cc(Nc2ccnc(NCc3ccc(NC(=O)OC(C)(C)C)cc3)n2)[nH]n1 [21i, methyl 5-((2-((4-((tert-butoxycarbonyl)amino)benzyl)amino)pyrimidin-4-yl)amino)-1H-pyrazole-3-carboxylate]	1.3 °C	0.2 °C	0.4 °C	stabilization of CDK16 and GSK3	1.8 °C	2.4 °C	-0.6 °C	1.1 °C	-0.7 °C	-0.6 °C	0.1 °C	380 nM	0.6 °C	1.7 °C	–
CC(C)OC(=O)c1cc(Nc2ccnc(NCc3ccc(NC(=O)OC(C)(C)C)cc3)n2)n[nH]1 [42d, isopropyl 3-((2-((4-((tert-butoxycarbonyl)amino)benzyl)amino)pyrimidin-4-yl)amino)-1H-pyrazole-5-carboxylate]	1.1 °C	0.1 °C	0.6 °C	–	-3.0 °C	0.4 °C	-0.5 °C	-0.6 °C	0.1 °C	0.2 °C	0.8 °C	44 nM	0.4 °C	-0.7 °C	–
CC(C)(C)OC(=O)Nc1ccc(CNc2nccc(Nc3cc(C(=O)OC(C)(C)C)[nH]n3)n2)cc1 [43d, tert-butyl 3-((2-((4-((tert-butoxycarbonyl)amino)benzyl)amino)pyrimidin-4-yl)amino)-1H-pyrazole-5-carboxylate]	1.1 °C	0.3 °C	1.3 °C	–	-1.6 °C	1.0 °C	-0.3 °C	0.1 °C	-0.1 °C	-0.7 °C	-0.3 °C	33 nM and 33.4 nM	0.6 °C	-1.4 °C	–
N#CCc1ccc(Nc2nccc(Nc3cc(C4CC4)[nH]n3)n2)cc1 [compound 1, reference compound]	8.5 °C	5.9 °C	8.4 °C	stabilization of CDK16 and GSK3	7.2 °C	10.0 °C	2.5 °C	12.0 °C	7.1 °C	3.3 °C	9.3 °C	–	4.4 °C	6.5 °C	14.6 ± 5.5 nM
